# Measured values reported in patent publication US20110144018A1, “AGENT FOR PROPHYLAXIS OF REFLEX SYMPATHETIC DYSTROPHY AFTER CEREBRAL APOPLEXY” (priority 2006, published 2011).
# Assays:
# [1] = test system: RSD triggered and developed by a trauma or surgical invasion; settings: clinical; cited from earlier work
# [2] = test system: patients with hemiplegia attributed to cerebrovascular disease (stroke), post-stroke RSD (shoulder-hand syndrome); test: Test of prevention of onset of post-stroke RSD; type: in vivo, human
# Description: Test subjects were 33 patients with hemiplegia attributed to cerebrovascular disease (stroke) at Brunnstrom stage III or lower in either the upper limb or a finger on admission. Patients already developing RSD (shoulder-hand syndrome) on admission and patients with pain in the shoulder joint or swollen paralyzed limbs were excluded from the test. […] On the other hand, 21 test subjects were classified into a rehabilitation alone group (control group) and compared with the EL administration group. Physical therapy and therapeutic exercise, occupational therapy, and the management of the paralyzed limbs were performed thoroughly in all the cases. […] EL administration was initiated 11 to 59 days after an attack of stroke (25.8 days on average) and continued until 5 months after the attack of stroke. The same observation period was applied to the control group. The test subjects were diagnosed as developing RSD (shoulder-hand syndrome) if they had diffuse pain not localized to the shoulder joint, edema involving skin color changes, skin temperature abnormalities, and range of motion limitations, and the practice of their rehabilitation was restricted. These criteria agreed to Veldman's diagnostic criteria or diagnostic criteria, for CRPS-type 1 provided by the International Association for the Study of Pain.
# Activities of daily living (ADL) were evaluated on the basis of the Barthel Index (BI) and the range of motion (ROM) of shoulder joint. The movable range of shoulder joint (also referred to as “shoulder ROM”) was regarded as restricted (Shoulder-ROM-restrictions were present.) if either abduction or flexion was restricted in measurement. The test subjects were also examined for sensory impairment, aphasia, and unilateral spatial neglect on admission.
# Statistical analysis was conducted with unpaired t-test, Fisher's exact test, or Wilcoxon test, and 5% or lower significance level was regarded as being significant.
# [3] = test system: patients with hemiplegia attributed to cerebrovascular disease (stroke) who developed RSD (shoulder-hand syndrome); test: Test of treatment of post-stroke RSD; type: in vivo, human; settings: therapeutic administration group
# Experimental: EL was administered after the onset of RSD (shoulder-hand syndrome) in the same use and dose as in Example 1 to 11 patients with hemiplegia attributed to cerebrovascular disease (stroke) at Brunnstrom stage III or lower in either the upper limb or a finger on admission, who developed RSD (shoulder-hand syndrome). These patients were classified into a therapeutic administration group. On the other hand, the EL administration group of Example 1 was compared as a control (preventive administration group) with the therapeutic administration group.
# [4] = EL preventive administration group, 12 cases, 20 units i.m. once a week until 5 months after attack
compound,measurement,setting,value
O=C1O[C@H]([C@@H](O)CO)C(O)=C1O [vitamin C],Effect on initial onset of RSD,[1],preventive effect
1-butyric acid-7-(L-2-aminobutyric acid)-26-L-aspartic acid-27-L-valine-29-L-alanine-calcitonin [EL],Incidence of RSD converted to all patients with hemiplegia attributed to stroke in the facility,[2]; EL administration group,approximately 1.3%
same,Incidence of RSD,[2]; EL administration initiated within 48 days after stroke,0%
same,Incidence of RSD (cases developing RSD),"[2]; EL preventive administration group, 1 of 12 cases",8.3%
same,Number of test subjects developing post-stroke RSD (Developed),[2]; [4],1
same,Number of test subjects not developing post-stroke RSD (Not developed),[2]; [4],11
same,"No RSD, the number of persons","[2]; preventive administration group, at completion of administration",11
same,Incidence of RSD until discharge from hospital versus unadministered patient group,[2]; repetitive administration to stroke hemiplegia patients without RSD on admission,suppressed significantly and remarkably
same,Barthel index at completion of EL administration compared with preventive administration group,[3],significantly low
same,"Diffuse pain, shoulder joint pain and progression of range of motion restrictions",[3],slightly suppressed
same,Suppression of the symptoms of RSD,[3],could not be suppressed completely in any case
